Test [1] has as its target PI3K delta (Homo sapiens (Human), UniProt O00329). The test is described as follows: Enzymatic PI3K delta isoform inhibition (lipid kinase activity, Kinase-Glo luminescence). The test is classed as biochemical. As to conditions: Enzymatic assay. The method, boiled down: (§1)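 ATP-depletion format: 10 nM PI3K with 5 μg/mL phosphatidylinositol and 2 μM ATP, run to ~50% ATP consumption, then Kinase-Glo added and remaining ATP read by luminescence after 5 min. IC50 from 4-parameter logistic fit, typically over 8 concentrations 10–0.003 μM.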
(Kinase-Glo measures the ATP left after a reaction by luminescence.)

Test [2] has as its target PI3K alpha (Homo sapiens (Human), UniProt P42336). The test is described as follows: Enzymatic PI3K alpha isoform inhibition (lipid kinase activity, Kinase-Glo luminescence). The test is classed as biochemical. As to conditions: Enzymatic assay. In a few lines:
as §1

Chain of PI3K delta (O00329 other isoform, or with tags, fused parts or gaps linker GGGGGG): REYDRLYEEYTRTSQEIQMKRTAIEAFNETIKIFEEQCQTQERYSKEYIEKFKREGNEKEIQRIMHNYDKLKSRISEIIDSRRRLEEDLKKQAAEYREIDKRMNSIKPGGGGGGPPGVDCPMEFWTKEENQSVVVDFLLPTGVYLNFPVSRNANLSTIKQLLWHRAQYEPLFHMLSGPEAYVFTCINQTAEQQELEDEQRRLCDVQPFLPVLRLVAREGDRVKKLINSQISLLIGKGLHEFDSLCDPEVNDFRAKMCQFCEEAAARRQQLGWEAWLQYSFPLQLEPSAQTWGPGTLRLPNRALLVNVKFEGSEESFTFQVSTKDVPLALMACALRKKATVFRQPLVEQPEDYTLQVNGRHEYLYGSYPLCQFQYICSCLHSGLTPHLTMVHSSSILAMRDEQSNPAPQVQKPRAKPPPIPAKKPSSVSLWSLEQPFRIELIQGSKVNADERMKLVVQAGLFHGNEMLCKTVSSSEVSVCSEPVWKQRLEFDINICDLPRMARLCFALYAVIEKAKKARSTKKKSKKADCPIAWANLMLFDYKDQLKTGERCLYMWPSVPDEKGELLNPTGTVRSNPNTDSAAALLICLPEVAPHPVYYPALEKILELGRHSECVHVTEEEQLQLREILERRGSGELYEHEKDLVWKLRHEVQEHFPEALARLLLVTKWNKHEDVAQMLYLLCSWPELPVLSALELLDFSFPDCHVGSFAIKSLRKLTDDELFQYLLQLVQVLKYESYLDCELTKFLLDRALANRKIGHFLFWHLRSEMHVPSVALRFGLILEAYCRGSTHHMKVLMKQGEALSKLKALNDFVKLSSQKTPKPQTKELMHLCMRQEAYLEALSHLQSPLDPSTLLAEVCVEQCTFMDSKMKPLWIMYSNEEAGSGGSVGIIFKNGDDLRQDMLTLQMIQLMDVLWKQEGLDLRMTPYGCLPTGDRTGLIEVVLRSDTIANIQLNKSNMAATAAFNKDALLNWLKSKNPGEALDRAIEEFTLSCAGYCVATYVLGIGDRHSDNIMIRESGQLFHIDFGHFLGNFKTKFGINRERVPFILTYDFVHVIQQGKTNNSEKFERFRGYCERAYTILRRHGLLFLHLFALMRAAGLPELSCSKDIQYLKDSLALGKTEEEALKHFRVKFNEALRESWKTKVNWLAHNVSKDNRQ
Chain of PI3K alpha (P42336 other isoform, or with tags, fused parts or gaps): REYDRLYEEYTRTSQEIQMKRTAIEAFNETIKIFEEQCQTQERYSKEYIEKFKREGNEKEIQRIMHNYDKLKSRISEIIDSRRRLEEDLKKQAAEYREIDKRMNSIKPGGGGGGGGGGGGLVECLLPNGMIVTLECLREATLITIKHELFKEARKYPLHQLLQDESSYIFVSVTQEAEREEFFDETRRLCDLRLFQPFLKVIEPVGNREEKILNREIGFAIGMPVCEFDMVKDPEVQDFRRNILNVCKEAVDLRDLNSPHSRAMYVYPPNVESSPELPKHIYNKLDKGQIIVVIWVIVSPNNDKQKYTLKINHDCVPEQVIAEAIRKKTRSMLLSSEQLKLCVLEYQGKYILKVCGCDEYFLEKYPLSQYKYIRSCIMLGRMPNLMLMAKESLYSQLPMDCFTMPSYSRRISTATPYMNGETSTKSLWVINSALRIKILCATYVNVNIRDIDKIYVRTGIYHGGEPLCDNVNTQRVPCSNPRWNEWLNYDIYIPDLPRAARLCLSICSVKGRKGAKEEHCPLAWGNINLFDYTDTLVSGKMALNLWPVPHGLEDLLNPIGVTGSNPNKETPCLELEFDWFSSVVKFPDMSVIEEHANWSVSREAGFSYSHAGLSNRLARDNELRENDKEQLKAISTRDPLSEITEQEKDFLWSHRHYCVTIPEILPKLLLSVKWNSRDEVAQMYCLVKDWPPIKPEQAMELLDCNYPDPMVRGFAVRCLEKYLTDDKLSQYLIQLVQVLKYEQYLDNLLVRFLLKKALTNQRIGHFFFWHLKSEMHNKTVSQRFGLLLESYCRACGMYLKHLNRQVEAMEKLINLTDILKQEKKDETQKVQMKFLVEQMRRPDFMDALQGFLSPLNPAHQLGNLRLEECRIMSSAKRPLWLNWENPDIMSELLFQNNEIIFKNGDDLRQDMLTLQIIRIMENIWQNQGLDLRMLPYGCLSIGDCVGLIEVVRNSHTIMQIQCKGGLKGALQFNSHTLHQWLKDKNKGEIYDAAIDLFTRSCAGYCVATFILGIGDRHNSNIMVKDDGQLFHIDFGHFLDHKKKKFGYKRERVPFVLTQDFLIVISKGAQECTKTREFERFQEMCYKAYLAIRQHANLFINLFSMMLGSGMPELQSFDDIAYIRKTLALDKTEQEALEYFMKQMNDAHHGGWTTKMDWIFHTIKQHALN

For orientation: IC50 means the point on the concentration scale where inhibition reaches its midpoint. Consider `CCC(=O)N1C[C@@H](Oc2ccc3c(c2)N(c2cnc(OC)c(C#N)c2)CCO3)CO1` [Example D23, 2-Methoxy-5-[6-((R)-2-propionyl-isoxazolidin-4-yloxy)-2,3-dihydro-benzo[1,4]oxazin-4-yl]-nicotinonitrile], for which the IC50 is 0.214 µM in test [1] and 2.53 µM in test [2].

In the case of `COc1ncc(N2CCOc3ccc(O[C@@H]4CON(C(=O)C5CCOCC5)C4)cc32)cc1C#N` [Example D24, 2-Methoxy-5-{6-[(S)-2-(tetrahydro-pyran-4-carbonyl)-isoxazolidin-4-yloxy]-2,3-dihydro-benzo[1,4]oxazin-4-yl}-nicotinonitrile], the IC50 in test [1] is 7.08 µM; in test [2], greater than 9.1 µM.

Take `CCC(=O)N1C[C@H](Oc2ccc3c(c2)N(c2cnc(OC)c(C#N)c2)CCO3)CO1` [Example D25, 2-Methoxy-5-[6-((S)-2-propionyl-isoxazolidin-4-yloxy)-2,3-dihydro-benzo[1,4]oxazin-4-yl]-nicotinonitrile]: the IC50 in test [1] was 2.69 µM; in test [2] it was greater than 9.1 µM.

Consider `COc1ncc(N2CCOc3ccc(O[C@H]4CON(C(=O)c5cn(C)cn5)C4)cc32)cc1C#N` [Example D26, 2-Methoxy-5-{6-[(R)-2-(1-methyl-1H-imidazole-4-carbonyl)-isoxazolidin-4-yloxy]-2,3-dihydro-benzo[1,4]oxazin-4-yl}-nicotinonitrile], for which the IC50 worked out at 0.028 µM in test [1] and 1.24 µM in test [2].

Take `COc1ncc(N2CCOc3ccc(O[C@H]4CCN(C(=O)c5cnn(C)c5)C4)cc32)cc1C#N` [Example D27, 2-Methoxy-5-{6-[(S)-1-(1-methyl-1H-pyrazole-4-carbonyl)-pyrrolidin-3-yloxy]-2,3-dihydro-benzo[1,4]oxazin-4-yl}-nicotinonitrile]: the IC50 in test [1] is 0.064 µM; in test [2], 1.57 µM.

Consider `COc1ccc(N2CCOc3ccc(O[C@H]4CCN(C(=O)C5CCOCC5)C4)cc32)cn1` [Example D30, {(S)-3-[4-(6-Methoxy-pyridin-3-yl)-3,4-dihydro-2H-benzo[1,4]oxazin-6-yloxy]-pyrrolidin-1-yl}-(tetrahydro-pyran-4-yl)-methanone], for which the results for the IC50 in test [1] and in test [2] were 0.127 µM and 5.15 µM, respectively.

For `COc1ncc(N2CCOc3ccc(O[C@H]4CCN(C(=O)c5cncn5C)C4)cc32)cc1C#N` [Example D31, 2-Methoxy-5-{6-[(S)-1-(3-methyl-3H-imidazole-4-carbonyl)-pyrrolidin-3-yloxy]-2,3-dihydro-benzo[1,4]oxazin-4-yl}-nicotinonitrile], the IC50 in test [1] was determined as 0.009 µM; in test [2], 0.135 µM.

On to `COc1ncc(N2CCOc3ccc(O[C@H]4CCN(C(=O)c5cnco5)C4)cc32)cc1C#N` [Example D32, 2-Methoxy-5-{6-[(S)-1-(oxazole-5-carbonyl)-pyrrolidin-3-yloxy]-2,3-dihydro-benzo[1,4]oxazin-4-yl}-nicotinonitrile], for which the IC50 in test [1] was determined as 0.009 µM; in test [2], 0.094 µM.

Take `COc1ncc(N2CCOc3ccc(O[C@H]4CCN(C(=O)c5ocnc5C)C4)cc32)cc1C#N` [Example D33, 2-Methoxy-5-{6-[(S)-1-(4-methyl-oxazole-5-carbonyl)-pyrrolidin-3-yloxy]-2,3-dihydro-benzo[1,4]oxazin-4-yl}-nicotinonitrile]: the IC50 turned out to be 0.008 µM in test [1] and 0.117 µM in test [2].

For `COc1ncc(N2CCOc3ccc(O[C@H]4CCN(C(=O)N5CCOCC5)C4)cc32)cc1C#N` [Example D34, 2-Methoxy-5-{6-[(S)-1-(morpholine-4-carbonyl)-pyrrolidin-3-yloxy]-2,3-dihydro-benzo[1,4]oxazin-4-yl}-nicotinonitrile], the IC50 was 0.009 µM in test [1] and 0.273 µM in test [2].

`COc1ncc(N2CCOc3ccc(O[C@H]4CCN(C(=O)Cc5cn(C)cn5)C4)cc32)cc1C#N` [Example D37, 2-Methoxy-5-(6-{(S)-1-[2-(1-methyl-1H-imidazol-4-yl)-acetyl]-pyrrolidin-3-yloxy}-2,3-dihydro-benzo[1,4]oxazin-4-yl)-nicotinonitrile]: the IC50 turned out to be 0.127 µM in test [1] and 0.298 µM in test [2].

Consider `COc1ncc(N2CCOc3ccc(O[C@H]4CCN(C(=O)C5CCNCC5)C4)cc32)cc1C#N` [Example D38, 2-Methoxy-5-{6-[(S)-1-(piperidine-4-carbonyl)-pyrrolidin-3-yloxy]-2,3-dihydro-benzo[1,4]oxazin-4-yl}-nicotinonitrile], for which the IC50 stood at 0.018 µM in test [1] and 0.516 µM in test [2].

`COc1ncc(N2CCOc3ccc(O[C@H]4CCN(C(=O)[C@H]5CCNC5)C4)cc32)cc1C#N` [Example D39, 2-methoxy-5-{6-[(S)-1-((S)-pyrrolidine-3-carbonyl)-pyrrolidin-3-yloxy]-2,3-dihydro-benzo[1,4]oxazin-4-yl}-nicotinonitrile]: the figures for the IC50 in test [1] and in test [2] were 0.036 µM and 0.987 µM, respectively.

As for `COc1ncc(N2CCOc3ccc(O[C@H]4CCN(C(=O)[C@@H]5CCNC5)C4)cc32)cc1C#N` [Example D40, 2-methoxy-5-{6-[(S)-1-((R)-pyrrolidine-3-carbonyl)-pyrrolidin-3-yloxy]-2,3-dihydro-benzo[1,4]oxazin-4-yl}-nicotinonitrile], the 50% inhibitory concentration (IC50) in test [1] is 0.025 µM; in test [2] it was 0.705 µM.

For the compound `COc1ncc(N2CCOc3cnc(O[C@H]4CCN(C(=O)C5CCS(=O)(=O)CC5)C4)cc32)cc1C(F)(F)F` [Example E6, (1,1-Dioxo-hexahydro-1lambda*6*-thiopyran-4-yl)-{(S)-3-[1-(6-methoxy-5-trifluoromethyl-pyridin-3-yl)-2,3-dihydro-1H-pyrido[3,4-b][1,4]oxazin-7-yloxy]-pyrrolidin-1-yl}-methanone], the IC50 is 0.009 µM in test [1] and 0.341 µM in test [2].

As to `COc1ncc(N2CCOc3cnc(O[C@H]4CCN(C(=O)c5cn(C)cn5)C4)cc32)cc1C(F)(F)F` [Example E7, {(S)-3-[1-(6-Methoxy-5-trifluoromethyl-pyridin-3-yl)-2,3-dihydro-1H-pyrido[3,4-b][1,4]oxazin-7-yloxy]-pyrrolidin-1-yl}-(1-methyl-1H-imidazol-4-yl)-methanone], the figures for the IC50 in test [1] and in test [2] were 0.022 µM and 0.133 µM, respectively.

With `Cc1cc(N2CCOc3cnc(O[C@H]4CCN(C(=O)C5CCOCC5)C4)cc32)cnc1OC(F)F` [Example E9, {(S)-3-[1-(6-Difluoromethoxy-5-methyl-pyridin-3-yl)-2,3-dihydro-1H-pyrido[3,4-b][1,4]oxazin-7-yloxy]pyrrolidin-1-yl}-(tetrahydro-pyran-4-yl)-methanone], the IC50 in test [1] was 0.007 µM; in test [2] it was 0.593 µM.

Regarding `Cc1cc(N2CCOc3cnc(O[C@H]4CCN(C(=O)c5cn(C)cn5)C4)cc32)cnc1OC(F)F` [Example E10, {(S)-3-[1-(6-Difluoromethoxy-5-methyl-pyridin-3-yl)-2,3-dihydro-1H-pyrido[3,4-b][1,4]oxazin-7-yloxy]-pyrrolidin-1-yl}-(1-methyl-1H-imidazol-4-yl)-methanone], the half-maximal inhibitory concentration (IC50) amounted to 0.013 µM in test [1] and 0.229 µM in test [2].

Turning to `Cc1cc(N2CCOc3cnc(O[C@H]4CCN(C(=O)C5CC5)C4)cc32)cnc1OC(F)F` [Example E11, Cyclopropyl-{(S)-3-[1-(6-difluoromethoxy-5-methyl-pyridin-3-yl)-2,3-dihydro-1H-pyrido[3,4-b][1,4]oxazin-7-yloxy]-pyrrolidin-1-yl}-methanone], the IC50 in test [1] is less than 0.003 µM; in test [2], 0.377 µM.

The values are drawn from patent publication US9539260B2, “Dihydro-benzo-oxazine and dihydro-pyrido-oxazine derivatives” (Novartis AG, priority 2012, dated 2017).
